Laboratory results: ChEMBL document CHEMBL1201862, “PubChem BioAssay data set” (2004)
Calls of active or inactive are those of the source.

Assays:
CAAX prenyl protease 2 [1] = target: T1, CAAX prenyl protease 2 (Homo sapiens, UniProt Q9Y256); test: inhibition of Ras-converting CAAX protease Rce1 – biochemical, yeast membranes, quenched-peptide fluorescence, cherry-pick, dose response (AID 588849)
T1 sequence (Q9Y256 whole entry): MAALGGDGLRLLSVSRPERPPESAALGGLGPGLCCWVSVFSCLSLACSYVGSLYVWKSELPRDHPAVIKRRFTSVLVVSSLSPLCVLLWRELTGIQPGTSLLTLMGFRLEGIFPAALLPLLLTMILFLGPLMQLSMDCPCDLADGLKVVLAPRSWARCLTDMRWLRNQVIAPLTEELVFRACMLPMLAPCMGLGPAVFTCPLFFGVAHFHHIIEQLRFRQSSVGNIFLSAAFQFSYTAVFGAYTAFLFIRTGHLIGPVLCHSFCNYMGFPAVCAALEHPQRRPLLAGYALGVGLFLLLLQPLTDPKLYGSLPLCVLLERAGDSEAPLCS

Trypsin = Trypsin (Sus scrofa, UniProt P00761); test: trypsin protease activity blockade – biochemical, quenched peptide fluorescence, cherry-pick, selectivity assay for Rce1 protease inhibitor project, dose response (AID 488789)
Sequence of Trypsin (P00761 whole entry): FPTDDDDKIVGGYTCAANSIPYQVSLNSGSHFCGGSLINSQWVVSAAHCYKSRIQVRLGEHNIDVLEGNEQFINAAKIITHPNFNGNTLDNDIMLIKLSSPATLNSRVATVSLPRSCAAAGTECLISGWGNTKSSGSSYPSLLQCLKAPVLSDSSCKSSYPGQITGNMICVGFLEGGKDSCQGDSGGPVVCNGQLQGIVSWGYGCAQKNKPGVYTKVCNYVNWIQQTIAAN

[2] = target: T2, Mannose-6-phosphate isomerase (Homo sapiens, UniProt P34949); test: MPI inhibition at elevated mannose 6-phosphate – biochemical, fluorescence intensity, high mannose 6-phosphate, primary screen (AID 1220)
T2 sequence (P34949 whole entry): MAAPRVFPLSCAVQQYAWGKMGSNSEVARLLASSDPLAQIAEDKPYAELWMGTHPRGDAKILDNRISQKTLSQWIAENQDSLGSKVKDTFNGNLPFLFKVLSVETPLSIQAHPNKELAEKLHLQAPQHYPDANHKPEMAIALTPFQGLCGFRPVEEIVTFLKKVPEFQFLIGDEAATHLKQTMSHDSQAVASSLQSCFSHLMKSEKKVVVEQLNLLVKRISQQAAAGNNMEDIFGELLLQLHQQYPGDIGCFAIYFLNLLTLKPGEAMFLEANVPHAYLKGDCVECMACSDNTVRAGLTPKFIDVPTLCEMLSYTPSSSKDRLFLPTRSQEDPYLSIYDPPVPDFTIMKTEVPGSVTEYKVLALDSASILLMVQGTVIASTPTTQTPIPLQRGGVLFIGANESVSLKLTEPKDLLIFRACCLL

[3] = target: NAD-dependent protein deacylase sirtuin-5, mitochondrial (Homo sapiens, UniProt Q9NXA8); test: sirtuin-5 deacylation blockers, concentration series – biochemical, fluorescence imaging, cherry-pick, set 5, dose response (AID 720591);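 note: desuccinylation of succinyl peptide AMC substrate read as fluorescence after trypsin release; potency of inhibitors that lower fluorescence and may act on trypsin instead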
Sequence of NAD-dependent protein deacylase sirtuin-5, mitochondrial (Q9NXA8 whole entry): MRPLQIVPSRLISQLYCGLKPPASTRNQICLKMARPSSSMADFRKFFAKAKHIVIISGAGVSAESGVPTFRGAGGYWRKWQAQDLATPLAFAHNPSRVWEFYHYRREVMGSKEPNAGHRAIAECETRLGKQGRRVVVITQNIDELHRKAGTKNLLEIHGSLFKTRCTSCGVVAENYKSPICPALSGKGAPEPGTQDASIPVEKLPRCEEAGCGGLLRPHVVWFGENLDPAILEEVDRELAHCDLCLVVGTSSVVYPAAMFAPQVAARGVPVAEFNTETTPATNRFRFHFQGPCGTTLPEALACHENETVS

[4] = growth inhibition of MALME3 cells – cell-based, CellTiter-Glo luminescence, dry powder, set 5, orthogonal assay for MITF inhibitor project, dose response (AID 651584); type: functional; settings: MALME-3
[5] = MITF Measured in Cell-Based System Using Plate Reader - 2084-01_Inhibitor_Dose_DryPowder_Activity_Set7.; type: functional
[6] = melanocyte viability loss, MITF-dependent cells, cell-based, plate reader, dry powder, cytotoxicity control, dose response (AID 651920); type: functional
[7] = MITF Orthogonal Assay: SK-MEL-5 CTG Assay Measured in Cell-Based System Using Plate Reader - 2084-02_Inhibitor_Dose_DryPowder_Activity_Set5.; type: functional
[8] = cytotoxicity in melanoma parental cells – cell-based, CellTiter-Glo, dry powder, set 6, MITF inhibitor project, dose response (AID 624429); type: functional; settings: SK-MEL-5
[9] = viability loss in MITF-independent A375 cells – cell-based, CellTiter-Glo luminescence, dry powder, set 6, counter-screen for MITF inhibitor project, dose response (AID 624488); type: functional; settings: A-375
[10] = MITF Orthogonal Assay: MALME3 CTG Assay Measured in Cell-Based System Using Plate Reader - 2084-04_Inhibitor_Dose_DryPowder_Activity_Set6.; type: functional; settings: MALME-3
[11] = viability loss in MITF-independent A375 cells – cell-based, CellTiter-Glo luminescence, dry powder, set 7, counter-screen for MITF inhibitor project, dose response (AID 624490); type: functional; settings: A-375
[12] = cytotoxicity in MITF-independent A375 cells – cell-based, CellTiter-Glo luminescence, dry powder, set 9, counter-screen for MITF modulator project, dose response (AID 651591); type: functional; settings: A-375
[13] = cytotoxicity in MITF-independent A375 cells – cell-based, CellTiter-Glo luminescence, dry powder, set 4, counter-screen for MITF inhibitor project, dose response (AID 624364); type: functional; settings: A-375;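 note: A375 melanoma cells are MITF independent so this is a counter screen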
[14] = growth inhibition of SK-MEL-5 melanoma cells – cell-based, CellTiter-Glo luminescence, dry powder, set 8, orthogonal assay for MITF inhibitor project, dose response (AID 651586); type: functional
[15] = MITF Measured in Cell-Based System Using Plate Reader - 2084-01_Inhibitor_Dose_DryPowder_Activity_Set6.; type: functional
[16] = inhibitors of TRPM1-promoter reporter in SK-MEL-5 – cell-based, luciferase, dry powder, set 9, MITF inhibitor project, dose response (AID 651588); type: functional
Kallikrein-7 = Kallikrein-7 (Homo sapiens, UniProt P49862); test: Fluorescence Intensity-based biochemical primary high throughput dose response assay to identify activators of kallikrein-7 (K7) zymogen.
Sequence of Kallikrein-7 (P49862 whole entry): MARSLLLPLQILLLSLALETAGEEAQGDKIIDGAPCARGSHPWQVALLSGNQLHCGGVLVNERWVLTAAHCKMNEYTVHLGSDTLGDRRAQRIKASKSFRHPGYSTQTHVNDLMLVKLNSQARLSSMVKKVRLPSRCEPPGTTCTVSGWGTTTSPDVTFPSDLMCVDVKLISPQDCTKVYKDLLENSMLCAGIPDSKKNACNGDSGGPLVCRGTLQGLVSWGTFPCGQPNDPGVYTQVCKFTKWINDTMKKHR

CAAX prenyl protease 2 [17] = target: T3, CAAX prenyl protease 2 (Saccharomyces cerevisiae S288c, UniProt Q03530); type: biochemical
T3 sequence (Q03530 whole entry): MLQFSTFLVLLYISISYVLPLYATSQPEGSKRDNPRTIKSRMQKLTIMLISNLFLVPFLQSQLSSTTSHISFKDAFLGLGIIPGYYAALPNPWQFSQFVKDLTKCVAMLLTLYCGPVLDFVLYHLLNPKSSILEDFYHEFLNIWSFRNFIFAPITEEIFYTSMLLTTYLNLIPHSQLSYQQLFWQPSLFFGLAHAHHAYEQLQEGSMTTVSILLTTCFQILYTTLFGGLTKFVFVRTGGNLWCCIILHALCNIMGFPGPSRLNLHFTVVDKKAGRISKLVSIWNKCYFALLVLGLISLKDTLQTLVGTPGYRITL

[18] = PAX8-dependent cell viability loss – plate reader, dry powder, dose response (AID 743049); type: functional, cell-based
[19] = OVCAR8 cell viability loss – plate reader, dry powder samples, PAX8 project, dose response (AID 743197); type: functional, cell-based; settings: OVCAR-8
[20] = COV362 cell viability loss – plate reader, dry powder, SA12, cytotoxicity control for PAX8 inhibitor project, dose response (AID 743144); type: functional, cell-based
Paired box protein Pax-8 = Paired box protein Pax-8 (Homo sapiens, UniProt Q06710); test: PAX8 transcriptional activity inhibition in RMG-I – RMG-I cells, luciferase, cherry-pick, dose response (AID 687027); type: functional, cell-based;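 note: luciferase reporter driven by Pax8 target thyroperoxidase promoter measured by SteadyGlo luminescence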
Sequence of Paired box protein Pax-8 (Q06710 whole entry): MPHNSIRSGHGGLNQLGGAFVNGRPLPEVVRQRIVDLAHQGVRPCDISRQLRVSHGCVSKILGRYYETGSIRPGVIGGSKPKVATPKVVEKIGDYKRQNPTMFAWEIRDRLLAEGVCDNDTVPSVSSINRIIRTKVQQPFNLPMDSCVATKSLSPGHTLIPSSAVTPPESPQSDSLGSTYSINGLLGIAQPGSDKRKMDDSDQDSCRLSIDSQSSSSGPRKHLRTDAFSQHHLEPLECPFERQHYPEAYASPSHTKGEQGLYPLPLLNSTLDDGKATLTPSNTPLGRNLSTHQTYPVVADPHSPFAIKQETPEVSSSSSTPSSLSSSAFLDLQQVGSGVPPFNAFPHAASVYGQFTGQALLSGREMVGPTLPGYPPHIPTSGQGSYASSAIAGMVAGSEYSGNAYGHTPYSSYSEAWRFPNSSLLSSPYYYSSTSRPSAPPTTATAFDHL

[21] = inhibitors acting on PAX2 in cells – cell-based, plate reader, dry powder samples, selectivity assay for PAX8 inhibitor project, dose response (AID 743048); type: functional;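 note: HEK293 cells carrying a WT1 promoter luciferase reporter driven by expressed Pax2; potency is for inhibition of Pax2 driven reporter signal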
[22] = OVCAR-3 cell viability loss – plate reader, dry powder samples, PAX8 inhibitor project, dose response (AID 743044); type: functional, cell-based
[23] = PAX5 cellular inhibition readout – cell-based, plate reader, dry powder samples, selectivity assay for PAX8 inhibitor project, dose response (AID 743047); type: functional;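 note: HEK293 cells carrying a Pax5 driven CD19 promoter luciferase reporter; potency of inhibitors that lower reporter luminescence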
[24] = COV434 cell viability loss – plate reader, dry powder, SA7, cytotoxicity control for PAX8 inhibitor project, dose response (AID 743145); type: functional, cell-based
[25] = OV-90 cell viability loss – plate reader, dry powder, SA8, PAX8 inhibitor project, dose response (AID 743149); type: functional, cell-based
[26] = target: RNA-editing ligase 1, mitochondrial (Trypanosoma brucei brucei, UniProt P86926); test: inhibition of trypanosome RNA editing ligase – biochemical, fluorescence, Trypanosoma brucei, dose response (AID 1117295); type: functional
Sequence of RNA-editing ligase 1, mitochondrial (P86926 whole entry): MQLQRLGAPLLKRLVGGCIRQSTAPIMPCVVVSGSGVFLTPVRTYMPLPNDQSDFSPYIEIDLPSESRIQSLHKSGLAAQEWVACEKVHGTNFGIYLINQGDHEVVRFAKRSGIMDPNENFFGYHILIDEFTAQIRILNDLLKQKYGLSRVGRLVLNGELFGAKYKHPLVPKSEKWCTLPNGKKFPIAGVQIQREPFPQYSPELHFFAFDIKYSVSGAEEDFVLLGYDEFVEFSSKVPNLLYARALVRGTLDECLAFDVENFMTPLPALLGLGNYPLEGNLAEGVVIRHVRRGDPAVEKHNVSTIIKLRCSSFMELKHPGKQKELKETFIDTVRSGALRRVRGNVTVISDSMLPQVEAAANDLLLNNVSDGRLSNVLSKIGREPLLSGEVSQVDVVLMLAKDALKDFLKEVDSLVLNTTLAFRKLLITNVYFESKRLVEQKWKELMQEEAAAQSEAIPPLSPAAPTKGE

[27] = inhibitors of non-replicating M. tuberculosis, dose response, luciferase, dry powder (AID 651619); type: functional; settings: Mycobacterium tuberculosis
[28] = growth inhibition of replicating M. tuberculosis, dose response, counter-screen, dry powder, IC90 (AID 651617); type: functional; settings: Mycobacterium tuberculosis
[29] = inhibitors of non-replicating M. tuberculosis, dose response, luciferase, dry powder (AID 651620); type: functional; settings: Mycobacterium tuberculosis

SMILES: COc1cc2c(C#N)c(N3CCCCC3)nc(N)c2c(N)n1
- AC50 (CAAX prenyl protease 2 [1]): 20 µM (active)
- AC50 (Trypsin): 13.6 µM (active)
- IC50 [2]: > 50 µM (not active)

SMILES: CC1=Nc2cc(C(=O)O)ccc2Sc2ccc(Br)cc21
- AC50 [3]: 18.8 µM (active)

SMILES: COC1=C(NS(=O)(=O)c2ccc(Br)cc2)C(=O)c2ccccc2C1=O
- AC50 [4]: 34.9 µM (active)
- AC50 [5]: 10.4 µM (active)
- AC50 [6]: > 70 µM (inactive)
- AC50 [7]: 12 µM (active)
- AC50 [8]: 21.5 µM (active)
- AC50 [9]: > 70 µM (inactive)
- AC50 [10]: 34.9 µM (active)
- AC50 [11]: > 70 µM (inactive)
- AC50 [12]: > 70 µM (inactive)
- AC50 [13]: > 70 µM (inactive)
- AC50 [14]: 19.8 µM (active)
- AC50 [15]: 14.8 µM (active)
- AC50 [16]: 38.3 µM (active)

SMILES: Cc1oc2c(CN3CCCC3)c(O)ccc2c(=O)c1-c1ccc(Br)cc1
- AC50 (CAAX prenyl protease 2 [1]): 10 µM (active)
- EC50 (Kallikrein-7): > 69.5 µM (inactive)
- AC50 (Trypsin): 9.06 µM (active)
- AC50 (CAAX prenyl protease 2 [17]): 12 µM (active)

SMILES: C[C@H](CO)N1C[C@H](C)[C@@H](CN(C)Cc2ccc(C(F)(F)F)cc2)Oc2ccc(NS(=O)(=O)c3ccccc3)cc2CC1=O
- AC50 [18]: 53.2 µM (active)
- AC50 [19]: > 70 µM (inactive)
- AC50 [20]: > 70 µM (inactive)
- AC50 (Paired box protein Pax-8): 10.1 µM (active)
- AC50 [21]: 21 µM (active)
- AC50 [22]: 51.5 µM (active)
- AC50 [23]: 23 µM (active)
- AC50 [24]: 46.2 µM (active)
- AC50 [25]: 54 µM (active)

SMILES: C#CCOCCOCCOCCNc1nc(N2CCN(C(=O)[C@H](CCCCN)n3cc([C@@H](N)CC(C)C)nn3)CC2)nc(N2CCN(C(=O)[C@H](Cc3cc4ccccc4[nH]3)n3cc([C@@H](N)CC(C)C)nn3)CC2)n1
- IC50 [26]: > 96.6 µM (inactive)

SMILES: Fc1ccc(Cn2cc(CSc3nnc(C4CCCC4)o3)nn2)cc1
- IC90 [27]: 2 µM (active)
- IC90 [28]: 250 µM (active)
- IC90 [29]: 2 µM (active)
